Measurements reported in patent US8633216B2, “Imidazo[1,5-a]pyridine derivatives, method for preparing same and pharmaceutical compositions containing same” (Sanofi, priority 2005, dated 2014).
Structures can show the parent of a compound that is named as a salt.

system: not given; experiment: not given; details: not given

Compound	melting point [°C]
COC(=O)c1cccc(-c2nc(C(=O)c3ccc(N)c(OC)c3)n3ccccc23)c1	166
COc1cc(C(=O)c2nc(C#N)c3ccccn23)ccc1N (as salt: HCl)	224
COc1cc(C(=O)c2nc(Br)c3ccccn23)ccc1N (as salt: HCl) (hydrate or solvate)	204
COc1cccc(C(=O)Nc2nc(C(=O)c3ccc(N)c(OC)c3)n3ccccc23)c1 (as salt: HCl) (hydrate or solvate)	199
COc1cc(C(=O)c2nc(-c3cccc(F)c3)c3ccccn23)ccc1N (as salt: HCl) (hydrate or solvate)	228
COc1cccc(-c2nc(C(=O)c3ccc(N)c(OC)c3)n3ccc(C(=O)O)cc23)c1 (as salt: Na) (hydrate or solvate)	307

Continued, values first:

melting point [°C]	Compound
> 350	COc1cc(C(=O)c2ncc3cc(C(=O)O)ccn23)ccc1[N+](=O)[O-]
218	COC(=O)c1ccc2cnc(C(=O)c3ccc([N+](=O)[O-])c(OC)c3)n2c1
179	COC(=O)c1ccc2cnc(C(=O)c3ccc(N)c(OC)c3)n2c1
268	COc1cc(C(=O)c2ncc3cc(C(=O)O)ccn23)ccc1N (as salt: HCl) (hydrate or solvate)
192	COC(=O)[C@@H](C)NC(=O)c1ccn2c(C(=O)c3ccc(N)c(OC)c3)ncc2c1 (as salt: HCl) (hydrate or solvate)
259	COc1cc(C(=O)c2ncc3c(C(=O)O)cccn23)ccc1N (as salt: Na)
332	COc1cc(C(=O)c2ncc3c(C(=O)O)cccn23)ccc1[N+](=O)[O-] (as salt: Na)
302	COc1cc(C(=O)c2ncc3cc(OCC(=O)O)ccn23)ccc1N (as salt: Na) (hydrate or solvate)
244	COc1cc(C(=O)c2ncc3ccc(C(=O)N[C@@H](CO)C(=O)O)cn23)ccc1N (as salt: Na) (hydrate or solvate)

system: level of circulating platelets; experiment: Effect on thrombopenia induced by carboplatin in the mouse; type: in vivo; details: 150 mg/kg intraperitoneally, balbC mice, at nadir
Excerpt: Thrombopenia remains a pathology for which few effective treatments exist apart from the transfusion of platelet concentrates and thrombopoietin (Kaushansky, K., New Eng. J. Med., (1998), 339, pp. 746-754).
Anticancer chemotherapy constitutes one of the major causes of thrombopenia. One of the agents of chemotherapy, carboplatin, has been widely used to induce thrombopenia in the mouse and to be able thus to characterize the effect of compounds capable of improving the level of platelets, such as, for example, thrombopoietin (Hokom M. M. et al., Blood, (1995), 86, pp. 4486-4492).
150 mg/kg of carboplatin were administered intraperitoneally to balbC mice having a weight of 20 g. A blood sample is taken periodically by retro-orbital puncture and the level of circulating platelets is determined by a hematology automated machine (MS9™ from Melet-Schloesing Laboratoires, Cergy-Pontoise, France). […]
The compounds according to the invention or their solvent (a blank-control) are administered by the oral route for 5 days, the treatment being begun 7 days before the administration of carboplatin. The experiments are carried out on batches comprising 10-12 mice and the results are expressed as a mean±standard error. […]

Compound	reduction in the level of circulating platelets
N.N.O=C([O-])C1(C(=O)[O-])CCC1.[Pt+2] [carboplatin]	50-60%
